Calls of active or inactive are those of the source.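 Rule for the calls: active = compounds giving half or more protection of infected cells from virus-caused growth loss, again on retest; inactive = the rest.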 Where a SMILES comes first, the peptide text is derived from it. The star is where a group is joined. Cbz = O=C(OCc1ccccc1)*
Tested on: CEM cells HIV-1 protection, formazan growth assay
Assay: NCI AIDS Antiviral Assay
Conditions: for IC50: measured here: growth of uninfected CEM cells
Summary of the method: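 Human CEM cells, uninfected and HIV-1-infected, exposed to five drug concentrations; growth measured by soluble formazan assay and scored as percent protection from infection, with protecting compounds retested.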

SMILES	EC50	IC50	outcome
COc1ccc(C(C)=C(C#N)C#N)cc1	> 182 µM	> 182 µM	
CC(C)C(O)C(=O)C(O)C(C)C (configuration not stated)	> 1020 µM	> 1020 µM	
S=c1[nH]c2ccccc2c(=S)n1CN1CCCCC1	> 200 µM	110 µM	
C[C@]1(O)CC[C@H]2[C@@H]3CCC4=CC(=O)CC[C@]4(C)[C@@]3(Cl)[C@@H](Cl)C[C@@]21C	> 200 µM	> 200 µM	
CN(C)c1ccc(/C=C(\NC(=O)c2ccccc2)C(=O)Nc2ccccc2C(=O)N/N=C/c2ccc(N(C)C)cc2)cc1	> 25.1 µM	> 25.1 µM	
CCOC(=O)c1nn2c(C)nnc2s1			inactive
COc1ccc(NC(=O)CC(=O)N2N=C(c3ccccc3)C(N=Nc3ccc(S(=O)(=O)CCOS(=O)(=O)O)cc3)C2=O)cc1 (configuration not stated)	> 200 µM	> 200 µM	
c1ccc2[nH]c(SSc3nc4ccccc4[nH]3)nc2c1	> 107 µM	89.1 µM	
CNP(=O)(NC)NC	> 200 µM	> 200 µM	
COc1cc(/C=C(\C#N)C(=O)c2ccccc2)ccc1OCc1ccccc1	> 19.5 µM	> 19.5 µM	
CC(=O)O[C@H]1CC[C@@]2(C)C(=CC[C@@H]3C2CC[C@@]2(C)C3CC[C@@H]2c2nc(-c3ccccc3)cs2)C1 (some centres not stated)	> 52.5 µM	> 52.5 µM	
CCOC(=O)Cn1c(=O)cc(C)c2ccccc21	> 200 µM	> 200 µM	
COc1ccccc1NC(=O)C1=C(C)NC(C)=C(C(=O)Nc2ccccc2OC)C1c1ccc(C2C(C(=O)Nc3ccccc3OC)=C(C)NC(C)=C2C(=O)Nc2ccccc2OC)cc1	> 1.62 µM	> 1.62 µM	
S=c1sc2ccccc2n1CCSSCCn1c(=S)sc2ccccc21	> 200 µM	191 µM	
C1CNCCNCCN1	> 200 µM	> 200 µM	
O=C(O)c1ccc(Nc2nc3ccc(C(F)(F)F)cc3nc2C(=O)O)cc1	> 200 µM	> 200 µM	
CSc1ccc(/C=C2\CNC/C(=C\c3ccc(SC)cc3)C2=O)cc1	> 200 µM	58.9 µM	
CCc1ccccc1NC(=O)C1=C(C)NC(C)=C(C(=O)Nc2ccccc2CC)C1c1cccc([N+](=O)[O-])c1	> 19.1 µM	> 19.1 µM	
CCCC[Si](CCCC)(CCCC)O[C@@H](/C=C/C(=O)OCC)[C@H](Cc1ccccc1)O[Si](CCCC)(CCCC)CCCC	> 200 µM	> 200 µM	
O=S(=O)(O)C(O)CCC(O)S(=O)(=O)O (configuration not stated)	> 200 µM	40.7 µM	
CC(C)N(C(=O)C12C3C4C5(C#N)C3C1(C#N)C5C42I)C(C)C (configuration not stated)	> 617 µM	316 µM	
Cc1cccc2c(N)c3cccc(C(=O)NCC[N+](C)(C)Cc4ccccc4[N+](=O)[O-])c3nc12	> 100 µM	3.55 µM	

SMILES	EC50	IC50	outcome
CC(=O)/C(=C/c1ccc(-c2ccccc2)cc1)C(=O)c1ccccc1	1.58 µM	15.8 µM	
c1ccc2c(c1)NC(SSC1Nc3ccccc3S1)S2 (configuration not stated)	> 200 µM	> 200 µM	
CC1(C)CNC(=O)C2(CCCO2)CNC(C)(C)CNC(=O)C2(CCCO2)CN1 (configuration not stated)	> 126 µM	> 126 µM	
CC(=O)NC1=CC(=O)c2cc(C)cc(O)c2C1=O	> 200 µM	5.01 µM	
COC1O[C@@H]2CCN3C(=O)[C@@H](OC(=O)c4ccc([N+](=O)[O-])cc4)[C@H]1C23 (some centres not stated)	> 200 µM	> 200 µM	
CO[C@H]1c2cccc3cccc(c23)[C@@H]1n1[nH]c(=O)n(C(C)(C)C)c1=O	> 200 µM	> 200 µM	
CC(=O)NC1C(OCC(=O)NC(C)C(=O)NC(CCC(=O)NCCCCCNc2ccc([N+](=O)[O-])c3[nH]c4ccccc4c(=O)c23)C(N)=O)C(O)C(CO)OC1(C)OCc1ccccc1 (configuration not stated)	> 100 µM	3.39 µM	
CN(C)c1c(C2CC(O)C(CO)O2)c(=O)c1=O (configuration not stated)	> 200 µM	> 200 µM	
COC(=O)c1ccc(OCc2nc3ccccc3[nH]2)cc1	> 200 µM	75.9 µM	
COc1ccc(-c2cc(-c3ccc4c(c3)CC(C)O4)nc(N)n2)cc1 (configuration not stated)	> 30.2 µM	20 µM	
NC(N)=Nc1ccc2oc(=O)ccc2c1	> 120 µM	> 120 µM	
CCOC(=O)CNC(=O)C(CC(C)C)NC(=O)C1CCCN1C(=O)OCc1ccccc1 (stereo not drawn) (Cbz-Pro-Leu-Gly-OEt; configuration not given here)	> 562 µM	37.2 µM	
Cc1cc(=O)c2c(o1)C(=O)c1occc1C2=O			inactive
CCN(CC)c1ccc2nc3c4ccccc4c(=O)cc-3n(-c3ccccc3)c2c1	> 200 µM	4.57 µM	
COc1ccc2c(c1O)C(=O)C(CCC(=O)O)CC2 (configuration not stated)			inactive
CC(=O)OCC1OC(NC(=S)N/N=C2\CC(c3ccccc3)Oc3ccccc32)C(OC(C)=O)C(OC(C)=O)C1OC(C)=O (configuration not stated)			inactive
Cc1cc(N(CCC#N)CCC#N)ccc1/C=C(\N=[N+]=[N-])C(=O)NC(=O)COc1ccccc1	> 8.32 µM	> 8.32 µM	
O=S(O)CCCCSSCC(O)CO (configuration not stated)	> 200 µM	2.63 µM	
CSC1N=CNc2c1sc(=S)n2-c1ccccc1 (configuration not stated)	> 33.9 µM	> 33.9 µM	
CC(=O)Nc1ccc(/C(C#N)=C/c2ccc(N(C)CCC#N)cc2)cc1	> 200 µM	19.1 µM	
CN1C(=O)C(Cl)(C#N)C(c2ccccc2)N(C)C1c1ccccc1 (configuration not stated)	> 200 µM	8.71 µM	
CC(=O)NC(CCC(=O)c1ccc(Cl)cc1Cl)(C(=O)O)C(=O)O	> 200 µM	> 200 µM	

SMILES	EC50	IC50	outcome
Cc1cc(Cl)c(O)c(C2(C(O)c3ccc(O)cc3)NC(=S)NC2=O)c1 (configuration not stated)	> 200 µM	107 µM	
Cc1cc(=O)[nH]c(Sc2ccc([N+](=O)[O-])cc2[N+](=O)[O-])n1	> 200 µM	6.31 µM	
O=[N+]([O-])c1ccc(-c2noc(-c3ccc(Cl)cc3)c2C2=NCCN2)cc1	> 14.1 µM	> 14.1 µM	
COC(=O)C1CCOC(C)N1C(=O)OC(C)(C)C (configuration not stated)	> 200 µM	> 200 µM	
CNC1(C#N)CCN(Cc2ccccc2)CC1	> 200 µM	> 200 µM	
CC1(C)OC(=O)C(C)(C)C(=O)O1			inactive
Cn1c2ccccc2c(=NNc2ccc(S(=O)(=O)N=C(N)N)cc2)c2ccccc21	> 200 µM	5.5 µM	
CCC12C=CCN3CCC4(C(=C(C(=O)OC)C1)Nc1ccccc14)[C@H]32 (some centres not stated)	> 120 µM	5.25 µM	
COc1ccc(N=Nc2c(-c3ccccc3)nn(C(=O)CC(=O)Nc3ccccc3Cl)c2-c2ccccc2)cc1	> 24.5 µM	22.9 µM	
CN1C(=O)CC2CCC(=O)N2c2cccnc21 (configuration not stated)	> 200 µM	> 200 µM	
Cc1c2ccccc2c(CSCCC(N)C(=O)O)c2ccccc12 (configuration not stated)	> 200 µM	> 200 µM	
O=C([O-])C(=O)[N-]CCC[N-]C(=O)C(=O)[N-]CCC[N-]C(=O)C(=O)[O-].[Cu+2].[Cu+2].[Na+]	> 200 µM	17 µM	
CSc1ncc2c(n1)sc1c(=O)n(-c3ccccc3)cnc12	> 200 µM	> 200 µM	
Cc1cc(=O)n2nc(CCl)sc2n1	> 200 µM	9.33 µM	
Cc1cccc(NC(=O)CSc2nnc(-c3ccc(N=Cc4ccc(Cl)cc4)cc3)o2)c1	> 21.4 µM	> 21.4 µM	
COc1cccc(C2c3cc4c(cc3OC(N3CCCC3)C2C)OCO4)c1OC (configuration not stated)	> 200 µM	1.41 µM	
[O-]c1c2cc(-[n+]3c(-c4ccccc4)cc(-c4ccccc4)cc3-c3ccccc3)cc1CO[C@@H](c1ccccc1)[C@H](c1ccccc1)OCCOCCO[C@@H](c1ccccc1)[C@H](c1ccccc1)OC2	> 2 µM	0.105 µM	
CC(=O)OC(OC(C)=O)n1cc(C=O)c2ccccc21	> 200 µM	> 200 µM	
CCOC(=O)C(=O)C1CCCCC1=O (configuration not stated)	> 200 µM	43.7 µM	
Cc1cc(=O)c2cc3ccc4c5[nH]c(C)cc(=O)c5cc5ccc(c2[nH]1)c3c54	> 200 µM	33.9 µM	
CNc1ccc(C=C2c3ccccc3-c3ccccc32)cc1	> 13.2 µM	4.79 µM	
C/C(C=C(C#N)C#N)=C\c1cccc(F)c1	> 123 µM	14.1 µM	

SMILES	EC50	IC50	outcome
Nc1ncnc2ccc(Sc3ccc4ncnc(N)c4c3)cc12	> 100 µM	> 100 µM	
CCOC(=O)C1=C(O)CSC1=Nc1ccccc1			inactive
O=C(NC(=O)c1c(F)cccc1F)Nc1ccc(Br)cn1	> 200 µM	> 200 µM	
COc1ccc2nc3cccc([N+](=O)[O-])c3c(NCCO)c2c1	> 2 µM	0.0309 µM	
CCC(C)N(CCN)C(=O)c1cc2ccccc2c(-c2ccccc2Cl)n1 (configuration not stated)			inactive
CC(=O)OC(C)(C)/C=C/C(=O)[C@](C)(O)[C@H]1[C@H](O)C[C@@]2(C)[C@@H]3CC=C4[C@@H](C[C@H](O)[C@H](O)C4(C)C)[C@]3(C)C(=O)C[C@]12C	> 0.2 µM	0.0912 µM	
CCCCN=C1OCc2[nH][nH]c(=O)c21	> 1290 µM	> 1290 µM	
O=C1NC(Cc2ccccc2)C(=O)N2CCCC12 (configuration not stated)	> 1020 µM	> 1020 µM	
CC[C@]12C=CCN3CCC4(c5cc([C@]6(C(=O)OC)C[C@H]7CN(CCc8c6[nH]c6ccccc86)C[C@@H]6CCCC[C@H]76)c(OC)cc5N(C)C4[C@@](O)(C(=O)OC)C1OC(C)=O)[C@@H]32 (some centres not stated)	> 240 µM	1.32 µM	
O=c1cc2cccccc-2o1	> 603 µM	295 µM	
O=C1NC23CC=CCC12CCCCCC3 (configuration not stated)	> 389 µM		
Cc1cc(=O)[nH]c(CNC(=O)Cc2ccccc2)n1	> 977 µM	> 977 µM	
[O-][N+](=Nc1ccccc1CO)c1ccccc1CO	110 µM	> 200 µM	
O=C1C(=O)c2ccccc2C(O)=C1C(/C=C/c1ccccc1)C1=C(O)c2ccccc2C(=O)C1=O	> 200 µM	9.55 µM	
CC1(Cl)CC2C(CC1Sc1nnnn1-c1ccccc1)C2(C)C (configuration not stated)	> 20.9 µM	> 20.9 µM	
CC(=O)O[C@H]1[C@@H]2[C@@H](C[C@H](C)[C@H]3C=CC(=O)[C@@]31C)OC(=O)[C@@H]2C	> 200 µM	34.7 µM	
CN(O)C(=S)c1ccccc1	> 14.8 µM	0.112 µM	
CC(=O)N1N=C(c2ccc(N=Nc3c(C)nn(-c4ccccc4)c3C)cc2)OC1c1ccc(Cl)cc1 (configuration not stated)	> 18.6 µM	> 18.6 µM	
NC(Cc1ccc(O)c(O)c1)P(=O)(O)O (configuration not stated)	> 200 µM	24.5 µM	
